Where two headings read alike, the source gives them in different places.
Settings: for Total gain / Weekly gain / Final wt.: kittens; for Total gain / Weekly gain: 10 weeks post-weaning; for Final wt.: end of 10-week trial
Excerpt: Dietary methionine was fed to growing kittens at three levels (0.77, 1.14, and 1.50%) to determine the effect of methionine on growth performance and antioxidant activity. Kittens were fed meat based, canned diets for 10 weeks post-weaning.

[1] = Week 5, dietary methionine 0.77 wt %
[2] = Week 5, dietary methionine 1.14 wt %
[3] = Week 5, dietary methionine 1.50 wt %
[4] = Week 10, dietary methionine 0.77 wt %
[5] = Week 10, dietary methionine 1.14 wt %
[6] = Week 10, dietary methionine 1.50 wt %
[7] = week 5, 1.50 wt % dietary methionine vs 0.77 wt %
[8] = week 10, 1.50 wt % dietary methionine vs 0.77 wt %

In the case of `CSCC[C@H](N)C(=O)O` [methionine], the “Weekly weight gain, in words” value (1.14 wt % and 1.50 wt % dietary methionine compared to 0.77 wt %) was “increased”, the “ORAC (oxygen radical absorptive capacity)” value [1] was 2521.84 and the “Taurine (whole blood)” value [1] was 575.63. The “Vitamin E (serum)” value [1] was 15.63, the “ORAC (oxygen radical absorptive capacity)” value [2] was 2694.51 and the “Taurine (whole blood)” value [2] was 630.00. For the same molecule, the “Vitamin E (serum)” value [2] was 19.86, the “ORAC (oxygen radical absorptive capacity)” value [3] was 3164.36 and the “Taurine (whole blood)” value [3] was 783.71. The “Vitamin E (serum)” value [3] was 30.19, the “ORAC (oxygen radical absorptive capacity)” value [4] was 2972.53 and the “Taurine (whole blood)” value [4] was 625.75. The “Vitamin E (serum)” value [4] was 20.74, the “ORAC (oxygen radical absorptive capacity)” value [5] was 2503.38 and the “Taurine (whole blood)” value [5] was 616.13. The “Vitamin E (serum)” value [5] was 24.24, the “ORAC (oxygen radical absorptive capacity)” value [6] was 3013.31 and the “Taurine (whole blood)” value [6] was 784.57. For the same molecule, the “Vitamin E (serum)” value [6] was 25.13, the Total gain (dietary methionine 0.77 wt %) was 950.00 g and the Weekly gain (dietary methionine 0.77 wt %) was 95.00 g. It also gave a Final wt. (dietary methionine 0.77 wt %) of 1518.75 g, a Total gain (dietary methionine 1.14 wt %) of 1075.00 g and a Weekly gain (dietary methionine 1.14 wt %) of 107.50 g. For the same molecule, the Final wt. (dietary methionine 1.14 wt %) was 1612.50 g, the Total gain (dietary methionine 1.50 wt %) was 1221.43 g and the Weekly gain (dietary methionine 1.50 wt %) was 122.14 g. The Final wt. (dietary methionine 1.50 wt %) was 1792.86 g, the “Blood taurine concentrations, in words” value [7] was “greater” and the “Oxygen radical absorptive capacity (ORAC), in words” value [7] was “greater”. The “Vitamin E concentrations, in words” value [7] was “greater”, the “Oxygen radical absorptive capacity, in words” value (week 10) was “not increased” and the “Serum vitamin E concentrations, in words” value [8] was “greater”. For the same molecule, the “Whole blood taurine concentrations, in words” value [8] was “greater”.

— patent US20140316005A1, “COMPOSITIONS FOR IMPROVED OXIDATIVE STATUS IN COMPANION ANIMALS” (HILL'S PET NUTRITION, INC., priority 2003, published 2014)
